According to patent US20120328660A1, “IMMUNOGENIC COMPOSITIONS USEFUL IN PROVOKING AN INTEGRATED RESPONSE TO TUMOR ANTIGENS” (priority 2011, published 2012):

Key:
CD4+ T cell lines = assay: Cytokine production of CD4+ T cell lines by sandwich ELISA; type: in vivo, human
Method: Equal amounts of CD4^+ T cell lines created supra, and autologous EBV-B cells (5×10^4) were co-cultured in 250 μl RPMI and 10% FCS. After the EBV-B cells had been pulsed overnight or not with the assay OLPs and cultured for 24 hours, supernatant was harvested, and stored at −20° C. until sandwich ELISAs were carried out using standard methods. The cytokines which were assayed included IFN-γ, GM-CSF, IL-4, IL-9, IL-10, IL-13, IL-17, and TGF-β. These are all known to be produced by different CD4^+ subsets.

[1] = test system: NY-ESO-1 region consisting of amino acids 100-129; assay: ELISA with assay OLPs as coating antigens to determine epitopes recognized by induced IgG; type: in vivo, human; details: accelerating the response, increasing titer, broadening antibody repertoire
Method: In these experiments, the epitopes recognized by the NY-ESO-1 specific IgGs that were induced by immunization were determined. ELISAs were carried out, using standard methods, with the assay OLPs supra being used as coating antigens. Antibody titers of subjects were tested at week 16, with the exception of one sample, which was tested at week 13. IgG responses were most frequent and strongest against the NY-ESO-1 region consisting of amino acids 121-150. The NY-ESO-1 region consisting of amino acids 80-109 was also recognized frequently, and in the case of the NY-ESO-1 region consisting of amino acids 100-129, all patients who received the combination of the peptides, Montanide, and polyICLC had relevant antibodies, as did 4/9 of the patients who received the peptides in Montanide only. There was a much lower response to the NY-ESO-1 region consisting of amino acids 142-173. In all cases, polyICLC enhanced the humoral, immune response, not only by accelerating the response and increasing titer, but also by broadening antibody repertoire.

Substance: polyICLC
- IL-9 production by T cells following immunization (CD4+ T cell lines; in vivo): inhibited completely
- level of IL-4 (CD4+ T cell lines; week 13 and 16): significantly suppressed
- level of IL-9 (CD4+ T cell lines; week 13 and 16): significantly suppressed
- level of IL-13 (CD4+ T cell lines; week 13 and 16): significantly suppressed
- IL-9/IL-4 ratio (CD4+ T cell lines; when polyICLC was used): significantly lower
- effect on humoral immune response [1]: enhanced
